Test results from patent publication US20050113450A1, “Antibacterial agents” (priority 2002, published 2005).
In brackets after ≈: the same amount, converted by molar mass.

System: SA 9218
Assay: MIC by standard agar dilution method
Format: cell-based
Conditions: Mueller Hinton agar, 10^4 to 10^5 cells per spot, incubated overnight at 35° C., lowest concentration that inhibits visible growth
Summary of the method: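 MIC read after overnight 35 °C incubation as lowest drug level preventing visible growth. Inoculum of roughly 10^4–10^5 cells per spot (0.5 McFarland, 1:20 in TSB) applied to Mueller Hinton agar containing serial 2-fold compound dilutions.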

CN(c1ccc(Cl)cc1)S(=O)(=O)c1cccc(C(=O)Nc2ccc([N+](=O)[O-])cc2C(=O)O)c1 [PNU-292379]
MIC: 0.5 µg/mL (≈ 1.02 µM)

N#Cc1ccc(NC(=O)c2cccc(S(=O)(=O)N3CCc4ccccc43)c2)c(C(=O)O)c1 [PHA-571161]
MIC: > 128 µg/mL

COc1ccc(C(=O)Nc2ccc(Br)cc2C(=O)O)cc1S(=O)(=O)N1CCc2ccccc21
MIC: 4 µg/mL (≈ 7.53 µM)

O=C(Nc1ccc(Br)cc1C(=O)O)c1ccc(OCC2CCOC2)cc1 (stereo not drawn)
MIC: 128 µg/mL (≈ 305 µM)

N#Cc1ccc(/C=C/c2cccc(S(=O)(=O)N3CCc4cc(Cl)ccc43)c2)c(C(=O)O)c1 [PHA-569887]
MIC: 0.25 µg/mL (≈ 0.538 µM)

O=C(Nc1ccc(Br)cc1C(=O)O)c1ccc(S(=O)(=O)C2CCc3ccc(Cl)cc32)cc1 (stereo not drawn)
MIC: 0.5 µg/mL (≈ 0.935 µM)

CN(C)c1cccc(C(=O)Nc2ccc(Br)cc2C(=O)O)c1
MIC: 32 µg/mL (≈ 88.1 µM)

CN(C1CCCCC1)S(=O)(=O)c1cccc(C(=O)Nc2ccc(C#N)cc2C(=O)O)c1 [PHA-571186]
MIC: 128 µg/mL (≈ 290 µM)

COC(=O)CCCC(=O)c1ccc(NC(=O)c2cccc(S(=O)(=O)N3CCc4ccc(Cl)cc43)c2)c(C(=O)O)c1
MIC: 64 µg/mL (≈ 109 µM)

N#Cc1ccc(NC(=O)c2ccc(-c3ccccc3)cc2)c(C(=O)O)c1
MIC: 64 µg/mL (≈ 187 µM)

O=C(Nc1ccc(Cl)cc1C(=O)O)c1ccc(C(=NO)C2CCCO2)cc1 (stereo not drawn)
MIC: 32 µg/mL (≈ 82.3 µM)

CC(C)C(=O)c1cccc(C(=O)Nc2ccc(Cl)cc2C(=O)O)c1 [PHA-656884]
MIC: 16 µg/mL (≈ 46.3 µM)

C#CC(CC)Oc1ccc(C(=O)Nc2ccc(Br)cc2C(=O)O)cc1 (stereo not drawn)
MIC: > 128 µg/mL

Cc1ccc(NC(=O)c2cccc(S(=O)(=O)N3CCc4cc(Cl)ccc43)c2)c(C(=O)O)c1 [PHA-552831]
MIC: 1 µg/mL (≈ 2.12 µM)

N#Cc1ccc(NC(=O)c2cccc([S+]([O-])C3CCCC3)c2)c(C(=O)O)c1 (stereo not drawn) [PHA-630427]
MIC: 4 µg/mL (≈ 10.5 µM)

CCN(Cc1ccncc1)S(=O)(=O)c1cc(C(=O)Nc2ccc(Br)cc2C(=O)O)ccc1Br
MIC: 128 µg/mL (≈ 214 µM)

O=C(Nc1ccc(Cl)cc1C(=O)O)c1ccc(S(=O)(=O)N2CCc3ccccc32)c([N+](=O)[O-])c1 [PNU-283599]
MIC: 1 µg/mL (≈ 1.99 µM)

Cc1ccc(S(=O)(=O)N2CCN(c3cccc(C(F)(F)F)c3)CC2)cc1C(=O)Nc1ccc(Br)cc1C(=O)O
MIC: 16 µg/mL (≈ 25.5 µM)

CC(C(O)c1ccccc1)N(C)S(=O)(=O)c1cccc(C(=O)Nc2ccc(C#N)cc2C(=O)O)c1 (stereo not drawn) [PHA-571272]
SA 9218 MIC: 32 µg/mL

N#Cc1ccc(NC(=O)c2cccc(Oc3cccc([N+](=O)[O-])c3)c2)c(C(=O)O)c1 [PHA-564218]
MIC: 1 µg/mL (≈ 2.48 µM)

Cc1ccc(C(=O)Nc2ccc(Br)cc2C(=O)O)cc1S(=O)(=O)NCc1ccc(N(C)C)cc1
MIC: 128 µg/mL (≈ 234 µM)

O=C(Nc1ccc(Br)cc1C(=O)O)c1ccc(-c2ccccc2)cc1
MIC: 32 µg/mL (≈ 80.8 µM)

O=C(Nc1ccc(-c2ccc(C(F)(F)F)cc2)cc1C(=O)O)c1cccc(S(=O)(=O)N2CCc3cc(Cl)ccc32)c1 [PHA-563285]
MIC: 2 µg/mL (≈ 3.33 µM)

N#Cc1ccc(NC(=O)c2ccc(Oc3ccccc3)cc2)c(C(=O)O)c1 [PHA-561055]
MIC: 1 µg/mL (≈ 2.79 µM)

CCCN(CCC)S(=O)(=O)c1ccc(C(=O)Nc2ccc(Cl)cc2C(=O)O)cc1Br [PNU-291410]
MIC: 4 µg/mL (≈ 7.72 µM)

COCCOc1ccc(C(=O)Nc2ccc(Br)cc2C(=O)O)cc1
MIC: 128 µg/mL (≈ 325 µM)

COc1ccc(C(=O)Nc2ccc(Cl)cc2C(=O)O)cc1[N+](=O)[O-] [PNU-291408]
SA 9218 MIC: 32 µg/mL

COc1ccc(C(=O)Nc2ccc(Br)cc2C(=O)O)cc1S(=O)(=O)N1CCN(c2ccc(Cl)cc2)CC1
MIC: 8 µg/mL (≈ 13.1 µM)

O=C(Nc1ccc(Br)cc1C(=O)O)c1cccc(C(O)c2ccccc2)c1 (stereo not drawn) [PHA-566947]
SA 9218 MIC: 0.5 µg/mL

N#Cc1ccc(NC(=O)c2cccc(S(=O)(=O)N3CCOCC3)c2)c(C(=O)O)c1 [PHA-662951]
SA 9218 MIC: 32 µg/mL

CC(C)Oc1ccc(C(=O)Nc2ccc(Br)cc2C(=O)O)cc1
MIC: 64 µg/mL (≈ 169 µM)

O=C(Nc1ccc(Br)cc1C(=O)O)c1ccc(C(F)(F)F)cc1
MIC: 32 µg/mL (≈ 82.4 µM)

O=C(Nc1ccc(Br)cc1C(=O)O)c1cccc(OCc2ccccc2)c1 [drawing 1037]
MIC: 4 µg/mL (≈ 9.38 µM)

O=C(Nc1ccc(Cl)cc1C(=O)O)c1cccc(C(=O)c2ccc3ccccc3n2)c1 [PHA-656880]
MIC: 16 µg/mL (≈ 37.1 µM)

N#Cc1ccc(NC(=O)c2cccc(S(=O)(=O)N3CCCC3CO)c2)c(C(=O)O)c1 (stereo not drawn) [PHA-656863]
MIC: 8 µg/mL (≈ 18.6 µM)

O=C(Nc1ccc(Br)cc1C(=O)O)c1ccc(S(=O)(=O)n2ccc3ccc(Cl)cc32)cc1 [PNU-290906]
MIC: 1 µg/mL (≈ 1.87 µM)

COc1ccc(Br)c(C(=O)Nc2ccc(C#N)cc2C(=O)O)c1 [PHA-571153]
MIC: 64 µg/mL (≈ 171 µM)

O=C(Nc1ccc(Br)cc1C(=O)O)c1ccc2ccccc2c1
MIC: 2 µg/mL (≈ 5.4 µM)

N#Cc1ccc(NC(=O)c2cccc(C(=O)C3CCCC3)c2)c(C(=O)O)c1 [PHA-570042]
MIC: 2 µg/mL (≈ 5.52 µM)

N#Cc1ccc(NC(=O)c2cccc(S(=O)(=O)N3CCC(O)CC3)c2)c(C(=O)O)c1 [PHA-571219]
MIC: 32 µg/mL (≈ 74.5 µM)

COc1ccc(Br)c(C(=O)Nc2ccc(Br)cc2C(=O)O)c1
MIC: 128 µg/mL (≈ 298 µM)

O=C(Nc1ccc([N+](=O)[O-])cc1C(=O)O)c1cccc(S(=O)(=O)N2CCOCC2)c1 [PHA-571397]
MIC: 4 µg/mL (≈ 9.19 µM)

CCSc1ccc(C(=O)Nc2ccc(C#N)cc2C(=O)O)cc1
MIC: 2 µg/mL (≈ 6.13 µM)

O=C(Nc1ccc(Cl)cc1C(=O)O)c1ccccc1
MIC: 128 µg/mL (≈ 464 µM)

O=C(Nc1ccc(Br)cc1C(=O)O)c1cccc(C(O)c2ccccc2)c1 (stereo not drawn) [PHA-521534]
SA 9218 MIC: 1 µg/mL

Cc1cc(C)c(C(=O)Nc2ccc(C(=O)Nc3ccc(Br)cc3C(=O)O)cc2)c(C)c1 [PHA-708982]
MIC: 128 µg/mL (≈ 266 µM)

O=C(Nc1ccc(/C=N/O)cc1C(=O)O)c1cccc(S(=O)(=O)N2CCOCC2)c1 [PHA-679756]
MIC: > 128 µg/mL

N#Cc1ccc(NC(=O)c2cccc(Oc3ccccc3)c2)c(C(=O)O)c1 [PHA-535553]
MIC: 1 µg/mL (≈ 2.79 µM)

CC1CCN(S(=O)(=O)c2ccc(C(=O)Nc3ccc(C#N)cc3C(=O)O)cc2)CC1 [PHA-571240]
MIC: 16 µg/mL (≈ 37.4 µM)

O=C(Nc1ccc(Cl)cc1C(=O)O)c1cccc(C(=NO)c2cccnc2)c1
MIC: 4 µg/mL (≈ 10.1 µM)

CCCNC(c1ccccc1)c1cccc(C(=O)Nc2ccc(Cl)cc2C(=O)O)c1 (stereo not drawn)
MIC: 8 µg/mL (≈ 18.9 µM)

CC(Sc1cccc(C(=O)Nc2ccc(C#N)cc2C(=O)O)c1)c1ccccc1 (stereo not drawn) [PHA-547267]
MIC: 0.125 µg/mL (≈ 0.311 µM)

O=C(Nc1ccc(Cl)cc1C(=O)O)c1cccc(C(=O)C2CC2)c1 [PHA-656890]
MIC: 16 µg/mL (≈ 46.5 µM)

O=C(Nc1ccc(-c2ccccc2C(F)(F)F)cc1C(=O)O)c1cccc(S(=O)(=O)N2CCc3cc(Cl)ccc32)c1 [PHA-563279]
MIC: 0.5 µg/mL (≈ 0.832 µM)

Nc1ccc(CCNS(=O)(=O)c2cccc(C(=O)Nc3ccc(Br)cc3C(=O)O)c2)cc1
MIC: 64 µg/mL (≈ 123 µM)

O=C(Nc1ccc(Br)cc1C(=O)O)c1cc(S(=O)(=O)N2CCc3ccccc32)ccc1Br
MIC: 2 µg/mL (≈ 3.45 µM)

CON=C(c1ccccc1)c1cccc(C(=O)Nc2ccc(Br)cc2C(=O)O)c1 [PHA-522146, 5-Bromo-2-({3-[(methoxyimino)(phenyl)methyl]benzoyl}amino)benzoic acid]
MIC: 0.5 µg/mL (≈ 1.1 µM)

O=C(O)c1cc(Br)ccc1NC(=O)c1cccc2ccccc12
MIC: 32 µg/mL (≈ 86.4 µM)

Cl.O=C(Nc1ccc(Br)cc1C(=O)O)c1cccc(SCc2ccncc2)c1 [PHA-502339A]
MIC: 8 µg/mL

O=C(Nc1ccc(Br)cc1C(=O)O)c1ccccc1F
MIC: 128 µg/mL (≈ 379 µM)

O=C(Nc1ccc(Br)cc1C(=O)O)c1ccc(O)cc1
MIC: 32 µg/mL (≈ 95.2 µM)

CN(C)c1ccc(C(=O)Nc2ccc(Br)cc2C(=O)O)cc1
MIC: 32 µg/mL (≈ 88.1 µM)

O=C(Nc1ccc(Br)cc1C(=O)O)c1cccc(OCc2cccc([N+](=O)[O-])c2)c1
MIC: 16 µg/mL (≈ 34 µM)

O=C(Nc1ccc(Cl)cc1C(=O)O)c1cccc(C(=O)c2cc(F)cc(F)c2)c1 [PHA-656893]
MIC: 8 µg/mL (≈ 19.2 µM)

O=C(Nc1ccc(-c2ccc(Cl)cc2)cc1C(=O)O)c1cccc(S(=O)(=O)N2CCc3cc(Cl)ccc32)c1 [PHA-563274]
MIC: 2 µg/mL (≈ 3.52 µM)

N#Cc1ccc(NC(=O)c2cccc(SCc3ccccc3)c2)c(C(=O)O)c1 [PHA-630368]
MIC: 0.5 µg/mL (≈ 1.29 µM)

CCCCOc1ccc(C(=O)Nc2ccc(Br)cc2C(=O)O)cc1
MIC: 8 µg/mL (≈ 20.4 µM)

O=C(Nc1ccc(Br)cc1C(=O)O)c1cc(S(=O)(=O)N2CCN(c3cccc(C(F)(F)F)c3)CC2)ccc1Br
MIC: 8 µg/mL (≈ 11.6 µM)

O=C(Nc1ccc(-c2ccc(F)cc2F)cc1C(=O)O)c1cccc(S(=O)(=O)N2CCc3cc(Cl)ccc32)c1 [PHA-563281]
MIC: 1 µg/mL (≈ 1.76 µM)

O=C(Nc1ccc(Cl)cc1C(=O)O)c1cccc(S(=O)(=O)N2CCOCC2)c1 [PHA-571395]
MIC: 4 µg/mL (≈ 9.41 µM)

CC(=O)c1ccc(NC(=O)c2cccc(S(=O)(=O)N3CCOCC3)c2)c(C(=O)O)c1 [PHA-708923]
MIC: 32 µg/mL (≈ 74 µM)

Cc1ccc(C(=O)Nc2ccc(Br)cc2C(=O)O)cc1S(=O)(=O)NCCc1ccc(N)cc1
MIC: 8 µg/mL (≈ 15 µM)

Cc1ccc(C(=O)Nc2ccc(Br)cc2C(=O)O)cc1S(=O)(=O)Nc1ccc(Cl)c2ccccc12
MIC: 8 µg/mL (≈ 13.9 µM)

O=C(Nc1ccc(Cl)cc1C(=O)O)c1cccc(C(=O)c2cccs2)c1 [PHA-656887]
MIC: 8 µg/mL (≈ 20.7 µM)

COc1c(C(=O)Nc2ccc(Br)cc2C(=O)O)cccc1S(=O)(=O)N(C)c1ccc(Cl)cc1 [PHA-735753]
MIC: 16 µg/mL (≈ 28.9 µM)

N#Cc1ccc(NC(=O)c2cccc(C(=NO)c3ccccc3)c2)c(C(=O)O)c1 [PHA-535548]
MIC: 0.25 µg/mL (≈ 0.649 µM)

N#Cc1ccc(NC(=O)c2cccc(C(=O)c3ccccc3)c2)c(C(=O)O)c1 [PHA-524524]
MIC: 1 µg/mL (≈ 2.7 µM)

O=C(Nc1ccc(Br)cc1C(=O)O)c1ccc(OC(F)F)cc1
MIC: 64 µg/mL (≈ 166 µM)
